For series [1], the system named is Male SD rats. The experiment in a line: Arteriovenous shunt model in rats. Conditions: rats given orally 2-4 hours before shunt opened; shunt 15 minutes; thrombus weight, treated vs. mean vehicle. It is filed as in vivo, rat. More on the design: concentration or dose not given beside the values. The source says:
III. Arteriovenous Shunt Model in Rats
Two 10 cm-long polyethylene tubings (1.50 and 2.88 mm of inner and outer diameter, respectively) linked to a central part (8 cm-long, 2.11 and 3.77 mm of inner and outer diameter, respectively) containing a 6 cm silk thread and filled with heparin (3.125 U/ml) were placed between the right carotid artery and the left jugular vein in rats.
Male SD rats were anesthetized by intraperitoneal injection of 10% chloral hydrate after oral dose, inverted fixation, then the right catotid artery and left vena jugularis externa were isolated, the proximal and distal sutures of catotid artery were tied. The syringe needle were cannulated into the catotid artery and fasted, the other of the tube was cannulated into the right vena jugularis externa. Rats were given orally 2-4 hours before the shunt was opened. Blood flowed from the right carotid artery into the polyethylene tubing and then return to left vena jugularis externa. The shunt was then disconnected 15 minutes later and the silk thread covered with thrombus was immediately withdrawn and weighed. The wet weight of the thrombus was determined. Then the silk thread was dried at 60° C. for 4 h to get the dry weight of the thrombus. The anti-thrombotic effects of these agents were expressed as percentage inhibition of thrombus formation based on the treated vs. the corresponding mean vehicle.

The next series has as its target T1, Factor Xa (Homo sapiens, UniProt P00742).
T1 construct: purchased MERK
Nature of the series: Anti-Factor Xa activity assay (chromogenic substrate CS-11(22)). It counts as biochemical. The note with it: ratio of compound IC50 to apixaban IC50; Factor Xa 0.1 U/ml, absorbance at 405 nm, 37° C. As for the experimental part:
I. Anti-Factor Xa Activity Assay
Substrate: CS-1122 (Hyphen)
Buffer: 50 mM TrisHCl, 150 mM NaCl, PH8.3
100 μL of buffer, 50 μL of different concentrations of compounds (diluted with buffer) and 50 μl of 0.1 U/ml Factor Xa enzyme (diluted with buffer) were added to a 96-well plate. After 15 min of exposure, 50 μL of chromogenic substrate 2.5 mg/ml CS-11 (22) was added. The substrate hydrolysis was monitored by measuring absorbance at 405 nm at 37° C. for up to 30 min (interval: 30 seconds) using a microplate spectrophotometer. IC50 was calculated by bliss.

Series [2] concerns Male SD rats. Nature of the series: Rat tail bleeding model. The note with it: rat tail transected 0.5 to 4 hours after administration; prolongation = ratio of treated vs. mean vehicle value; relative to apixaban. It is filed as in vivo. The procedure:
II Rat Tail Bleeding Model
Male SD rats were allocated randomly and administrated. After the administration, the rats were anesthetized by intraperitoneal injection of 10% chloral hydrate. At the time point of 0.5 to 4 hours (Tmax in PK) after the administration, the tails of anesthetized rats were transected 3 mm from the tip and vertically immersed in saline at 37° C. The time point when the continuous blood flow ceased for >30 s was measured. The prolongation of bleeding time was expressed as a ratio of treated vs. the mean vehicle value. Effects of compounds were determined as described below.

Structures are written as SMILES.

This is an account of results in patent US9975893B2, “Pyrazolo[3,4-c]pyridine derivatives” (CSPC ZHONGQI PHARMACEUTICAL TECHNOLOGY (SHIJIAZHUANG) CO., …, priority 2014, dated 2018).

T1 sequence (P00742 235-488 limits assumed): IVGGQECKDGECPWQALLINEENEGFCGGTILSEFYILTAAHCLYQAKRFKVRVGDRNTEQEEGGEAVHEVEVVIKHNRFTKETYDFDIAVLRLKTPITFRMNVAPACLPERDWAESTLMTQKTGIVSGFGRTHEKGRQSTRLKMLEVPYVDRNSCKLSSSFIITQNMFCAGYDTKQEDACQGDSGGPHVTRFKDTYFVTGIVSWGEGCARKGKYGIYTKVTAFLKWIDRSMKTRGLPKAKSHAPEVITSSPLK
T1 sequence (P00742 41-179 partner limits assumed): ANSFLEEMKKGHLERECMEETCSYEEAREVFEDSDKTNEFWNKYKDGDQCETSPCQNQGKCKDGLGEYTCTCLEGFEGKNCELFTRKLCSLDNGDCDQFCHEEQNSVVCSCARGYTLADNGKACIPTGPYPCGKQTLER

Regarding `CCOc1ccc(-n2nc(C(N)=O)c3c2C(=O)N(c2ccc(-n4ccccc4=O)c(C)c2)CC3)cc1F` [A 38, 1-(3-fluoro-4-ethoxyphenyl)-6-(3-methyl-4-(2-oxopyridin-1(2H)-yl)phenyl)-7-oxo-4,5,6,7-tetrahydro-1H-pyrazolo[3,4-c]pyridine-3-carboxamide], the “Inhibition of thrombus formation (%)” value in the series on Male SD rats [1] is reported as 70.5%. Moreover, on Factor Xa, the “IC50(Compound)/IC50(apixaban)” value is listed as less than 1. In addition, in the series with Male SD rats [2], the “The Prolongation of bleeding time (compound)/The Prolongation of bleeding time(apixaban)” value (shortened to “The Prolongation of bleeding time”) was less than 1.

For `CCOc1ccc(-n2nc(C(N)=O)c3c2C(=O)N(c2ccc(N4CCCCC4=O)cc2)CC3)cc1Cl` [A 29, 1-(3-chloro-4-ethoxyphenyl)-6-(4-(2-oxopiperidin-1-yl)phenyl)-7-oxo-4,5,6,7-tetrahydro-1H-pyrazolo[3,4-c]pyridine-3-carboxamide], the “Inhibition of thrombus formation (%)” value in the series with Male SD rats [1] worked out at 67.4%. Also, the “IC50(Compound)/IC50(apixaban)” value at Factor Xa is on record as less than 2. Besides, in the series with Male SD rats [2], the “The Prolongation of bleeding time” value is on record as less than 1.

In the case of `CCOc1ccc(-n2nc(C(N)=O)c3c2C(=O)N(c2ccc(N4CCCCC4=O)c(C)c2)CC3)cc1F` [A 32, 1-(3-fluoro-4-ethoxyphenyl)-6-(3-methyl-4-(2-oxopiperidin-1-yl)phenyl)-7-oxo-4,5,6,7-tetrahydro-1H-pyrazolo[3,4-c]pyridine-3-carboxamide], the “Inhibition of thrombus formation (%)” value in the series with Male SD rats [1] amounted to 61.4%. The “IC50(Compound)/IC50(apixaban)” value at Factor Xa is less than 1. Besides, the “The Prolongation of bleeding time” value in the series on Male SD rats [2] is listed as less than 1.

On to `COc1ccc(-n2nc(C(N)=O)c3c2C(=O)N(c2ccc(N4CCOCC4=O)c(C)c2)CC3)cc1` [A 17, 1-(4-methoxyphenyl)-6-(3-methyl-4-(3-oxomorpholino)phenyl)-7-oxo-4,5,6,7-tetrahydro-1H-pyrazolo[3,4-c]pyridine-3-carboxamide], for which the “IC50(Compound)/IC50(apixaban)” value on Factor Xa is on record as less than 1.

Consider `CCOc1ccc(-n2nc(C(N)=O)c3c2C(=O)N(c2ccc(-n4cccc(C)c4=O)cc2)CC3)cc1F` [A 27, 1-(3-fluoro-4-ethoxyphenyl)-6-(4-(3-methyl-2-oxopyridin-1(2H)-yl)phenyl)-7-oxo-4,5,6,7-tetrahydro-1H-pyrazolo[3,4-c]pyridine-3-carboxamide], for which, in the series on Male SD rats [1], the “Inhibition of thrombus formation (%)” value stood at 68.7%. Further, the “IC50(Compound)/IC50(apixaban)” value on Factor Xa is on record as less than 2. In the series on Male SD rats [2], the “The Prolongation of bleeding time” value was less than 1.

Take `CCOc1ccc(-n2nc(C(N)=O)c3c2C(=O)N(c2ccc(N4CCOCC4=O)c(C)c2)CC3)cc1` [A 33, 1-(4-ethoxyphenyl)-6-(3-methyl-4-(3-oxomorpholino)phenyl)-7-oxo-4,5,6,7-tetrahydro-1H-pyrazolo[3,4-c]pyridine-3-carboxamide]: the “Inhibition of thrombus formation (%)” value in the series on Male SD rats [1] came out at 60.8%. The “IC50(Compound)/IC50(apixaban)” value at Factor Xa is listed as less than 1. Moreover, the “The Prolongation of bleeding time” value with Male SD rats [2] is on record as less than 1.

Consider `COc1ccc(-n2nc(C(N)=O)c3c2C(=O)N(c2ccc(-n4ccccc4=O)c(C)c2)CC3)cc1F` [A 50, 1-(3-fluoro-4-methoxyphenyl)-6-(3-methyl-4-(2-oxopyridin-1(2H)-yl)phenyl)-7-oxo-4,5,6,7-tetrahydro-1H-pyrazolo[3,4-c]pyridine-3-carboxamide], for which the “IC50(Compound)/IC50(apixaban)” value at Factor Xa is less than 1.

Consider `COc1ccc(-n2nc(C(N)=O)c3c2C(=O)N(c2ccc(-n4ccccc4=O)c(C)c2)CC3)cc1` [A 19, 1-(4-methoxyphenyl)-6-(3-methyl-4-(2-oxopyridin-1(2H)-yl)phenyl)-7-oxo-4,5,6,7-tetrahydro-1H-pyrazolo[3,4-c]pyridine-3-carboxamide], for which the “IC50(Compound)/IC50(apixaban)” value at Factor Xa is recorded as less than 1.

As for `COc1ccc(-n2nc(C(N)=O)c3c2C(=O)N(c2ccc(N4CCOCC4=O)c(C)c2)CC3)cc1F` [A 48, 1-(3-fluoro-4-methoxyphenyl)-6-(3-methyl-4-(3-oxomorpholino)phenyl)-7-oxo-4,5,6,7-tetrahydro-1H-pyrazolo[3,4-c]pyridine-3-carboxamide], at Factor Xa, the “IC50(Compound)/IC50(apixaban)” value is reported as less than 1.

`CCOc1ccc(-n2nc(C(N)=O)c3c2C(=O)N(c2ccc(-n4cccc(C)c4=O)c(C)c2)CC3)cc1F` [A 40, 1-(3-fluoro-4-ethoxyphenyl)-6-(3-methyl-4-(3-methyl-2-oxopyridin-1(2H)-yl)phenyl)-7-oxo-4,5,6,7-tetrahydro-1H-pyrazolo[3,4-c]pyridine-3-carboxamide]: the “Inhibition of thrombus formation (%)” value in the series with Male SD rats [1] came out at 63.4%. Also, the “IC50(Compound)/IC50(apixaban)” value at Factor Xa is reported as less than 1. Moreover, the “The Prolongation of bleeding time” value in the series on Male SD rats [2] is recorded as less than 1.

On to `CCOc1ccc(-n2nc(C(N)=O)c3c2C(=O)N(c2ccc(-n4cccc(C)c4=O)cc2)CC3)cc1Cl` [A 30, 1-(3-chloro-4-ethoxyphenyl)-6-(4-(3-methyl-2-oxopyridin-1(2H)-yl)phenyl)-7-oxo-4,5,6,7-tetrahydro-1H-pyrazolo[3,4-c]pyridine-3-carboxamide], for which the “IC50(Compound)/IC50(apixaban)” value at Factor Xa is less than 2. Further, in the series with Male SD rats [2], the “The Prolongation of bleeding time” value was less than 1.

For `COc1ccc(-n2nc(C(N)=O)c3c2C(=O)N(c2ccc(N4CCCCC4=O)c(C)c2)CC3)cc1F` [A 47, 1-(3-fluoro-4-methoxyphenyl)-6-(3-methyl-4-(2-oxopiperidin-1-yl)phenyl)-7-oxo-4,5,6,7-tetrahydro-1H-pyrazolo[3,4-c]pyridine-3-carboxamide], the “IC50(Compound)/IC50(apixaban)” value on Factor Xa is on record as less than 1.

Take `CCOc1ccc(-n2nc(C(N)=O)c3c2C(=O)N(c2ccc(-n4cccc(C)c4=O)cc2)CC3)cc1` [A 28, 1-(4-ethoxyphenyl)-6-(4-(3-methyl-2-oxopyridin-1(2H)-yl)phenyl)-7-oxo-4,5,6,7-tetrahydro-1H-pyrazolo[3,4-c]pyridine-3-carboxamide]: in the series on Male SD rats [1], the “Inhibition of thrombus formation (%)” value amounted to 73.1%. At Factor Xa, the “IC50(Compound)/IC50(apixaban)” value was less than 1. The “The Prolongation of bleeding time” value with Male SD rats [2] was less than 1.

For the compound `CCOc1ccc(-n2nc(C(N)=O)c3c2C(=O)N(c2ccc(N4CCCC4=O)c(C)c2)CC3)cc1` [A 35, 1-(4-ethoxyphenyl)-6-(3-methyl-4-(2-oxopyrrolidin-1-yl)phenyl)-7-oxo-4,5,6,7-tetrahydro-1H-pyrazolo[3,4-c]pyridine-3-carboxamide], at Factor Xa, the “IC50(Compound)/IC50(apixaban)” value is less than 2. Besides, the “The Prolongation of bleeding time” value with Male SD rats [2] is listed as less than 1.

`CCOc1ccc(-n2nc(C(N)=O)c3c2C(=O)N(c2ccc(N4CCOCC4=O)c(C)c2)CC3)cc1F` [A 34, 1-(3-fluoro-4-ethoxyphenyl)-6-(3-methyl-4-(3-oxomorpholino)phenyl)-7-oxo-4,5,6,7-tetrahydro-1H-pyrazolo[3,4-c]pyridine-3-carboxamide]: the “Inhibition of thrombus formation (%)” value with Male SD rats [1] was 62.5%. The “IC50(Compound)/IC50(apixaban)” value on Factor Xa is listed as less than 1. In addition, the “The Prolongation of bleeding time” value in the series with Male SD rats [2] is less than 1.

`CCOc1ccc(-n2nc(C(N)=O)c3c2C(=O)N(c2ccc(N4CCCCC4=O)c(C)c2)CC3)cc1` [A 31, 1-(4-ethoxyphenyl)-6-(3-methyl-4-(2-oxopiperidin-1-yl)phenyl)-7-oxo-4,5,6,7-tetrahydro-1H-pyrazolo[3,4-c]pyridine-3-carboxamide]: in the series on Male SD rats [1], the “Inhibition of thrombus formation (%)” value is reported as 71.5%. Also, the “IC50(Compound)/IC50(apixaban)” value at Factor Xa is recorded as less than 1. Besides, the “The Prolongation of bleeding time” value in the series with Male SD rats [2] is reported as less than 1.

Take `COc1ccc(-n2nc(C(N)=O)c3c2C(=O)N(c2ccc(N4CCCCC4=O)c(C)c2)CC3)cc1` [A 16, 1-(4-methoxyphenyl)-6-(3-methyl-4-(2-oxopiperidin-1-yl)phenyl)-7-oxo-4,5,6,7-tetrahydro-1H-pyrazolo[3,4-c]pyridine-3-carboxamide]: the “IC50(Compound)/IC50(apixaban)” value at Factor Xa is on record as less than 1.

As to `COc1ccc(-n2nc(C(N)=O)c3c2C(=O)N(c2ccc(-n4cccc(C)c4=O)c(C)c2)CC3)cc1F` [A 51, 1-(3-fluoro-4-methoxyphenyl)-6-(3-methyl-4-(3-methyl-2-oxopyridin-1(2H)-yl)phenyl)-7-oxo-4,5,6,7-tetrahydro-1H-pyrazolo[3,4-c]pyridine-3-carboxamide], at Factor Xa, the “IC50(Compound)/IC50(apixaban)” value was less than 1.

`COc1ccc(-n2nc(C(N)=O)c3c2C(=O)N(c2ccc(N4CCSCC4=O)cc2)CC3)cc1` [A 3, 1-(4-methoxyphenyl)-6-(4-(3-oxothiomorpholino)phenyl)-7-oxo-4,5,6,7-tetrahydro-1H-pyrazolo[3,4-c]pyridine-3-carboxamide]: at Factor Xa, the “IC50(Compound)/IC50(apixaban)” value is listed as less than 1.
